# Reference: ChEMBL document CHEMBL1201862, “PubChem BioAssay data set” (2004)
# Activity calls are given as the source filed them.
# Columns and labels:
# [1] = biological target: T1, Rac GTPase-activating protein 1 (Homo sapiens, UniProt Q9H0H5); assay: blockers of MgcRacGAP-driven Rac1 GTP hydrolysis – biochemical, ADP Hunter fluorescence, primary and confirmatory, confirmation (AID 624330); format: functional
# T1 sequence (Q9H0H5 whole entry): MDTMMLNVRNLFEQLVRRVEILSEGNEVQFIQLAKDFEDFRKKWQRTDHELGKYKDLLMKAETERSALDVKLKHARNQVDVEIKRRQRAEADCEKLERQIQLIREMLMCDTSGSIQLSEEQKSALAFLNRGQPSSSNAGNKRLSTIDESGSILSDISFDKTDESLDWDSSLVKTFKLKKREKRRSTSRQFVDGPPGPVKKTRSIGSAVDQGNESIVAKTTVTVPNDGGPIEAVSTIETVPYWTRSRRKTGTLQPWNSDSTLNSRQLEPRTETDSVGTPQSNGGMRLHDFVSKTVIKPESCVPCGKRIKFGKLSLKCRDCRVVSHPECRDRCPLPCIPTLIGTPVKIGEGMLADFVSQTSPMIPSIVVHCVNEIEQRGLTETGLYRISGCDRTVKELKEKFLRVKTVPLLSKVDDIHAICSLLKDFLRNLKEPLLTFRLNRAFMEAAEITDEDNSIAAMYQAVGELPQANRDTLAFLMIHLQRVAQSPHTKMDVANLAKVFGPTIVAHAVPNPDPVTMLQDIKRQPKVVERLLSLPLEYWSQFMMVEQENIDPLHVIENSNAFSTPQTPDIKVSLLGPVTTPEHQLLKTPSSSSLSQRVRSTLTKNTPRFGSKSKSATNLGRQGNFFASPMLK
# [2] = blockers of bursicon-stimulated LGR2 cAMP reporter – cell-based, HEK293, CRE-luciferase reporter, cherry pick, set 2, dose response (AID 743343); format: functional;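 also: transfected cells were stimulated with diluted bursicon conditioned medium after compound addition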
# [3] = Fluorescence-based cell-based high throughput dose response assay for inhibitors of the interaction of nucleotide-binding oligomerization domain containing 2 (NOD2) and the receptor-interacting serine-threonine kinase 2 (RIPK2).; format: functional; conditions: Homo sapiens
# Beta Lactamase = Beta Lactamase (Pseudomonas aeruginosa, UniProt Q932Y6); assay: BLA reporter interference, concentration series – BLA reporter cells, FRET fluorescence, artefact control for NOD2-RIPK2 interaction inhibitor project, dose response (AID 651552); format: functional, cell-based
# Chain of Beta Lactamase (Q932Y6 whole entry): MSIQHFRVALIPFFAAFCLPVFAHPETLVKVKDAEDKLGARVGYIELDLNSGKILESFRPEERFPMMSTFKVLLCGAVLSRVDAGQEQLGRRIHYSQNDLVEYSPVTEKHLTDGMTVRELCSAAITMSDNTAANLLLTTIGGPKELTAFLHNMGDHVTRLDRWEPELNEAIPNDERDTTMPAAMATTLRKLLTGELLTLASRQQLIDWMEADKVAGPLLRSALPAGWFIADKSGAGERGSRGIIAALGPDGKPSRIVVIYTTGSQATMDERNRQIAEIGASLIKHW
# [4] = blockade of melanocortin 4 receptor signaling – cell-based, plate reader, cherry pick, counter-screen for LGR2 antagonist project, dose response (AID 743444); format: functional;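 also: transfected HEK 293 cells stimulated with alpha-MSH peptide; potency of inhibitors of the alpha-MSH evoked signal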
# [5] = biological target: T2, Alkaline phosphatase, tissue-nonspecific isozyme (Homo sapiens, UniProt P05186); assay: potency against alkaline phosphatase TNAP – biochemical, luminescent, dose response, SAR follow-up (AID 1056)
# T2 sequence (P05186 whole entry): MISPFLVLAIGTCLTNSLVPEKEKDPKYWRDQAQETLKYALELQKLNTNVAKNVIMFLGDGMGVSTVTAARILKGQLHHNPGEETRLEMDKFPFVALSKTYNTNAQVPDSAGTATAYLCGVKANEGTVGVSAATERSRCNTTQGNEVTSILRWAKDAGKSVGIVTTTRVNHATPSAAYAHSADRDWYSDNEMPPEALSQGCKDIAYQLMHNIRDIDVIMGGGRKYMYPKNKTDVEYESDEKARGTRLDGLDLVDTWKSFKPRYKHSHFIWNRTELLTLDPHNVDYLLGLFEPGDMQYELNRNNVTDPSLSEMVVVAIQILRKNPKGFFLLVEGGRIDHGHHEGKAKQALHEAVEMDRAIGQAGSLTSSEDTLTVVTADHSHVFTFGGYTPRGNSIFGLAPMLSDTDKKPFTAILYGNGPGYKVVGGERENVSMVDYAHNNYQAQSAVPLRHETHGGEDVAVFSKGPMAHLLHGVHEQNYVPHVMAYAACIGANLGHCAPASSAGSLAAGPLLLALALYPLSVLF
# [6] = biological target: Phosphoethanolamine/phosphocholine phosphatase (Homo sapiens, UniProt Q8TCT1); assay: SAR assay for compounds that inhibit PHOSPHO1. [Related pubchem assays (depositor defined):AID1545, AID1565, AID1574]
# Chain of Phosphoethanolamine/phosphocholine phosphatase (Q8TCT1 whole entry): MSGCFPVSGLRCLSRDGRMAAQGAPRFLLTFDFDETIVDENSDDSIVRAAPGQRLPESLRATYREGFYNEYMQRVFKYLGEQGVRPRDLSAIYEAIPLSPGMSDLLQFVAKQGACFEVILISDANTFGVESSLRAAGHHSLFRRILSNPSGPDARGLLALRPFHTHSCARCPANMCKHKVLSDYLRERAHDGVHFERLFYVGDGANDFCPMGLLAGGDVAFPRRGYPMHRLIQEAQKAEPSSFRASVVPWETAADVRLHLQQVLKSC
# [7] = biological target: DNA dC->dU-editing enzyme APOBEC-3G (Homo sapiens, UniProt Q9HC16); assay: Dose Response confirmation of small molecule APOBEC3G DNA Deaminase Inhibitors via a fluorescence-based single-stranded DNA deaminase assay. [Related pubchem assays (depositor defined):AID493012, AID493028]; format: functional
# Chain of DNA dC->dU-editing enzyme APOBEC-3G (Q9HC16 whole entry): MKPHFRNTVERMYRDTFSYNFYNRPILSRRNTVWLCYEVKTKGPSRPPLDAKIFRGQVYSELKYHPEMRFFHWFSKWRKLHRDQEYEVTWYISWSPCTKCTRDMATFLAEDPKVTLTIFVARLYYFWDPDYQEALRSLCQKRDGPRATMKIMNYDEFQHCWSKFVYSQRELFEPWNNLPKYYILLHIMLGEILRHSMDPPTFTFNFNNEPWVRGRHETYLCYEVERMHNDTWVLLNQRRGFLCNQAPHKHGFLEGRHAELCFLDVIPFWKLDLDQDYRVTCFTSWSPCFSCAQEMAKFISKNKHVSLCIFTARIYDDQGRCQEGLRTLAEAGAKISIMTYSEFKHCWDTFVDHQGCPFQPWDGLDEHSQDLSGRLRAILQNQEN
# [8] = viability loss in HeLa cells – cytotoxicity control for MgcRacGAP inhibitor project, dose response (AID 624300); format: functional
# [9] = Luminescence Cell-Based Dose Response HTS to Identify Activators of Luciferase Translation or Activity in H4 […] Cells. [Related pubchem assays: 1829 (Project Summary), 1814 (Primary HTS)]; format: functional
# [10] = biological target: Alkaline phosphatase, placental type (Homo sapiens, UniProt P05187); assay: human placental alkaline phosphatase inhibition – biochemical, luminescence, confirmation (AID 1512); format: functional
# Chain of Alkaline phosphatase, placental type (P05187 whole entry): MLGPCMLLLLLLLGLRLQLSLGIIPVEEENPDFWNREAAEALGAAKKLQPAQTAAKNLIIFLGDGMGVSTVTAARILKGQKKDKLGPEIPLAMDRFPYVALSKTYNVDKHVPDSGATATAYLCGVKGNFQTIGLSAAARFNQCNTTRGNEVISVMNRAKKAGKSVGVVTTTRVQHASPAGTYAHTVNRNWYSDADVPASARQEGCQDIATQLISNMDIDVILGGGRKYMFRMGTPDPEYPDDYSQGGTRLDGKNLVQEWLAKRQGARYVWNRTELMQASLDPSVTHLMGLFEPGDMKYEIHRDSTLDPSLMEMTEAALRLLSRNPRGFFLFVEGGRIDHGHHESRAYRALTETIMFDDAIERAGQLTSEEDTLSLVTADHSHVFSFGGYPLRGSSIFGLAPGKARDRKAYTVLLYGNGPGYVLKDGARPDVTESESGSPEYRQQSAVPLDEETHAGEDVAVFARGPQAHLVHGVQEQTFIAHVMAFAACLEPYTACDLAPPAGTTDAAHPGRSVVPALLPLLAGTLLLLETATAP
# [11] = biological target: G-protein coupled receptor 55 (Homo sapiens, UniProt Q9Y2T6); assay: selective activators of receptor GPR55 – imaging, U2OS cells, beta-arrestin-GFP redistribution, primary screen (AID 1961); format: functional
# Chain of G-protein coupled receptor 55 (Q9Y2T6 whole entry): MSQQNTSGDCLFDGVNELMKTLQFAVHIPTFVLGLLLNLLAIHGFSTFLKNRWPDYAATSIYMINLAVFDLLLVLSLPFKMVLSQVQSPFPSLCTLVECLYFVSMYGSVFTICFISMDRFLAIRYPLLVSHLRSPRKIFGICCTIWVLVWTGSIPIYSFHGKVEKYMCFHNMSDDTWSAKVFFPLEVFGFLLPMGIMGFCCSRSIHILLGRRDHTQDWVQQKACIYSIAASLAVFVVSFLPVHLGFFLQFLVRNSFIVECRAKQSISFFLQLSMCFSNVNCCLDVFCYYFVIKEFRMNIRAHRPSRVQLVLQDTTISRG
# [12] = Vero E6 cell cytotoxicity, dose response, cytotoxicity control for non-replicating M. tuberculosis project, secondary assay (AID 492998); format: functional, VeroE6; conditions: Vero C1008
# [13] = test system: Streptococcus sp. 'group A'; assay: Streptococcus pyogenes SK(-)GAS viability under kanamycin – luminescence, BacTiterGlo, confirmation, counter-screen for streptokinase expression inhibitor project, dose response (AID 1900); format: functional, organism-based
# [14] = THP-1 cell cytotoxicity, dose response, cytotoxicity control for non-replicating M. tuberculosis project (AID 489025); format: functional
# Streptokinase A = biological target: T3, Streptokinase A (Streptococcus pyogenes serotype M1, UniProt P10520); assay: viability-normalized secreted streptokinase activity reduction – plasminogen activation absorbance, OD405, dose response (AID 1914); format: functional, Streptococcus pyogenes M1 GAS;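 also: secreted streptokinase activity via plasminogen activation per viability signal from cell pellet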
# T3 sequence (P10520 whole entry): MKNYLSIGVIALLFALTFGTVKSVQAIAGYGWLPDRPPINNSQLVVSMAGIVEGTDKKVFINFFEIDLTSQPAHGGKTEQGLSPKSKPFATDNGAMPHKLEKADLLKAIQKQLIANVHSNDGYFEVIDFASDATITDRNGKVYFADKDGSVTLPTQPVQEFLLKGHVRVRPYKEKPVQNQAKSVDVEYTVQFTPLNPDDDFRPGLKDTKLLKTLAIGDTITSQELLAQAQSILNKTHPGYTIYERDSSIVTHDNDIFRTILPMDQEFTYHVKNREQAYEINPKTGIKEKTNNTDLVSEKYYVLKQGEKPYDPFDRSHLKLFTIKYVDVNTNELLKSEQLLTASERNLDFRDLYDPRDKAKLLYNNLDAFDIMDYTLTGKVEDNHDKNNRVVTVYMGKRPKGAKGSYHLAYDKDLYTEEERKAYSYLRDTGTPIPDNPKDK
# Streptococcus = assay: GAS UMAA2166 growth inhibition – luminescence, BacTiterGlo, counter-screen for streptokinase expression inhibitor project, dose response (AID 1915); format: functional, organism-based;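 also: potency for reduction of bacterial viability or growth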
# cells = format: functional
structure (smiles),measurement,setting,value
COc1ccc(-n2sc3ccc(F)cc3c2=O)cc1,IC50,[1],45.2 µM (active)
same,AC50,[2],6.6 µM (active)
same,IC50,[3],5.42 µM (active)
same,IC50,Beta Lactamase,19.9 µM (inactive)
same,AC50,[4],5.92 µM (active)
same,IC50,[5],> 100 µM (inactive)
same,IC50,[6],6.67 µM (inactive)
same,IC50,[7],10.8 µM (active)
same,CC50,[8],100 µM (active)
Clc1ccccc1-c1n[nH]c(-c2ccccc2)n1,EC50,[9],0.348 µM (active)
same,IC50,[10],> 100 µM (inactive)
same,IC50,[5],0.641 µM (active)
CC(C)(C)OC(=O)CN1C(=O)S/C(=C\c2ccc(-c3cccc(C(=O)O)c3)o2)C1=O,EC50,[11],4.23 µM (active)
COc1ccc(C(=O)Nc2nnc(-c3ccccc3)o2)cc1OC,CC50,[12],> 20 µM (active)
same,EC50,[13],6.46 µM (active)
same,CC50,[14],> 40 µM (active)
same,EC50,Streptokinase A,> 150 µM (not active)
same,EC50,Streptococcus,> 150 µM (not active)
same,IC50,cells,17.2 µM (active)
